# In PMC12613848, “First in human phase 1 study of DT2216, a selective BCL-xL degrader, in patients with relapsed/refractory solid malignancies” (Journal of Hematology & Oncology, 2025):
# Where “and” joins values, the source holds several entries; their conditions need not be identical. Equal entries are not always repeated. Entries after “also recorded” stand apart in the source; their conditions may differ.
# Experiments:
# Myla cells (CTCL) = experiment: In vitro IC90, Myla cells; assay type: cell-based
# Experimental: Fig. 7 Mean Plasma concentration of DT2216 in 4 patients infused with DT2216 at 0.4 mg/kg over time against in vitro inhibitory concentration 90%(IC90) for various cell lines. SCLC – small cell lung cancer; OC- ovarian carcinoma; T-ALL – T cell acute lymphoblastic leukemia, CTCL – Cutaneous T cell lymphoma TEXT PRINTED IN THE PICTURE: DT2216: IC90 (≈ 1000 nM) for H146 cells (SCLC); IC90 (< 1000 nM) for OVCAR4 cells (OC); IC90 (≈ 500 nM) for MOLT-4 cells (T-ALL); IC90 (< 100 nM) for OVCAR4 cells (OC)* (*In combination with Carboplatin); IC90 (≈ 100 nM) for H146 cells (SCLC)** (**In combination with SN-38/irinotecan); IC90 (30 nM) for Myla cells (CTCL)
# BCL-XL [1] = molecular target: T1, BCL-XL (Homo sapiens, UniProt Q07817); experiment: BCL-XL levels in peripheral leukocytes of patients by western blotting; assay type: in vivo; conditions: 0.4 mg/kg IV, 4 patients, after C1D1
# T1 construct: endogenous in cells; host or cells: peripheral leukocytes (WBC) of trial patients
# T1 sequence (Q07817 whole entry): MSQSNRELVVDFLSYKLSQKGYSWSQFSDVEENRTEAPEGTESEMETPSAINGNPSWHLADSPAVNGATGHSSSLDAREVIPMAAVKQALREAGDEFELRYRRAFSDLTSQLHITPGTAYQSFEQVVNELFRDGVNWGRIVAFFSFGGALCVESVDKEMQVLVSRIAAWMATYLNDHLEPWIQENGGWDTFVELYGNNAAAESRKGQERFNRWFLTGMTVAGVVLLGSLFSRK
# Experimental: Methods A dose escalation study using a 3 + 3 design with doses ranging from 0.04 to 0.4 mg/kg IV twice weekly (BIW) was performed. Eligible subjects had solid tumors of any histology that had progressed on standard treatment and had measurable tumor by RECIST v1.1. Tumor assessment was performed at 8-week intervals. BCL-XL levels were measured in peripheral leukocytes by western blotting. Results Twenty patients were enrolled, with a median age of 60.5 year; 60% were female. Only one dose-limiting toxicity was observed, grade 4 thrombocytopenia that resolved within 48 h. Stable disease, observed in 20% of the patients. The lowest platelet count in the first cycle ranged from 24,000 to 297,000. In all cases, the platelet count recovered to > 50,000 within 4 days and > 75,000 within 1 week. […] The median overall survival was 7.9 months. […] Conclusions Based on the rapid recovery of transient thrombocytopenia that occurred only in the first cycle and the degradation of BCL-XL in peripheral leukocytes, the RP2D of DT2216 is 0.4 mg/kg IV BIW. (NCT04886622)
# Premedication prior to each infusion was at the discretion of the investigator or according to institutional guidelines. Patient assessment and follow-up procedures can be found in the schedule of assessments in this study. The clinical response was evaluated using RECIST v1.1 per protocol. […]
# [2] = Safety and tolerability in patients (adverse events CTCAE v5.0, DLT, platelet count, RP2D); assay type: in vivo, human
# Experimental: Dose escalation consisted of the administration of DT2216 intravenously twice weekly at several different doses outlined in protocol attached. The starting dose was 0.04 mg/kg, established based on pre-clinical toxicity studies. Safety was evaluated using CTCAE version 5.0. The initial three dose levels enrolled one patient, following which for dose level 4 and 5, a 3 + 3 design was utilized following a 100% incremental dose increase for dose levels 2 to 5 until the first dose limiting toxicity (DLT) in cycle 1 was observed. Thereafter, a modified Fibonacci sequence was used to define dose escalation increments until the maximum tolerated dose (MTD) was reached as described in protocol. If no dose-limiting toxicity (DLT) was observed during the DLT monitoring period of first 28 days, the next patient was enrolled at the next higher dose level. Dose-limiting toxicities (DLTs) during the first treatment cycle were defined as any Grade 5 toxicity; Grade 4 neutropenia lasting > 7 days; febrile neutropenia; Grade 4 thrombocytopenia or Grade 3 thrombocytopenia with clinically significant hemorrhage or lasting ≥ 7 days; and Grade ≥ 3 non-hematologic toxicities, excluding nausea, vomiting, or diarrhea lasting ≤ 3 days or transient laboratory abnormalities resolving within 72 h. Hepatotoxicity meeting Hy’s law criteria was also considered a DLT. Transient Grade 3–4 electrolyte abnormalities resolving to ≤ Grade 2 within 72 h were not considered DLTs.
# Patients were allowed a maximum of two intra-patient dose escalations. Patients received DT2216 by intravenous infusion on days 1 and 4 weekly for at least 4 weeks, with each cycle consisting of a 28-day cycle for a maximum duration of 1 year until disease progression, unacceptable toxicity, or other withdrawal criteria, as listed in the protocol. The extent of disease was evaluated using imaging studies and disease-appropriate tumor markers every 8 weeks from day 1 of the first cycle. RP2D was established based on MTD as well as other relevant data, including clinical signals of activity, PK, and PD data.
# (§1) Premedication prior to each infusion was at the discretion of the investigator or according to institutional guidelines. Patient assessment and follow-up procedures can be found in the schedule of assessments in this study. The clinical response was evaluated using RECIST v1.1 per protocol. Blood samples were collected for PK analysis before and after post-infusion at defined intervals, along with platelet counts. Exploratory biomarkers include (but are not limited to) the assessment of BCL-XL and VHL levels in peripheral white blood cells (WBC).
# VHL = molecular target: T2, VHL (Homo sapiens, UniProt P40337); experiment: VHL expression in peripheral white blood cells of patients; assay type: in vivo; conditions: 0.4 mg/kg IV, 4 patients, after C1D1
# T2 construct: assessment of BCL-XL and VHL levels in peripheral white blood cells (WBC); endogenous in cells; host or cells: peripheral white blood cells of trial patients
# T2 sequence (P40337 whole entry): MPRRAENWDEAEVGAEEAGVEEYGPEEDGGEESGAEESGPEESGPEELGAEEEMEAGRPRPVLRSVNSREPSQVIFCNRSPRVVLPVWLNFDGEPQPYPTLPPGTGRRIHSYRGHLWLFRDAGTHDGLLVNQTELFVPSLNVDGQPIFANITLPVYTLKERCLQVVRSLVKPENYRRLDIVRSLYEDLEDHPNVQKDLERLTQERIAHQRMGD
# Experimental: as §1
# Fig. 6 Changes in BCL-XL and VHL expression after infusion of DT2216 at 0.4 mg/kg in 4 patients. […] Right panel depicts fold changes in VHL expression in the same patients after infusion of DT2216.
# BCL-XL [3] = molecular target: T1, BCL-XL; experiment: BCL-XL levels in WBCs from a normal human donor after incubation with DT2216; assay type: cell-based; conditions: increasing concentrations, approximately 16 hours incubation, beta actin control
# Experimental: Fig. 5 Levels of BCL-XL in WBCs from a normal human donor. They were determined after incubation with increasing concentrations of DT2216 as depicted in the figure for approximately 16 hours. […] BCL-XL expression after incubation with DT2216 in comparison to beta actin which acts as control in the figure
# [4] = number of subjects, 20 patients, all dose cohorts
# [5] = related TEAE, 20 patients, all dose cohorts
smiles,measurement,setting,value
Cc1ncsc1-c1ccc([C@H](C)NC(=O)[C@@H]2C[C@@H](O)CN2C(=O)[C@@H](NC(=O)CCCCCC(=O)N2CCN(CC[C@H](CSc3ccccc3)Nc3ccc(S(=O)(=O)NC(=O)c4ccc(N5CCN(CC6=C(c7ccc(Cl)cc7)CCC(C)(C)C6)CC5)cc4)cc3S(=O)(=O)C(F)(F)F)CC2)C(C)(C)C)cc1 [DT2216],IC90,Myla cells (CTCL),30 nM
same,BCL-XL expression in peripheral leukocytes,BCL-XL [1],rapid and sustained degradation of BCL-XL; also recorded: decreases rapidly after infusion of DT2216 and is persistent
same,"fatigue, related TEAE",[2]; 2 patients of 20,10%
same,"infusion-related reaction, related TEAE",[2]; 2 patients of 20,10%
same,"thrombocytopenia, related TEAE",[2]; 9 patients of 20,45%
same,bleeding events and treatment related deaths,[2]; 20 patients,no episodes of bleeding or treatment emergent adverse events leading to death; also recorded: no major bleeding events or treatment related deaths
same,Treatment discontinuation: Adverse event (subjects),"[2]; Cohort 1 (0.04 mg/kg), 1 treated",0
same,Treatment discontinuation: Adverse event (subjects),"[2]; Cohort 2 (0.08 mg/kg), 1 treated",0
same,Treatment discontinuation: Adverse event (subjects),"[2]; Cohort 3 (0.12 mg/kg), 1 treated",0
same,Treatment discontinuation: Adverse event (subjects),"[2]; Cohort 4 (0.24 mg/kg), 7 treated",0
same,Treatment discontinuation: Adverse event (subjects),"[2]; Cohort 5 (0.32 mg/kg), 6 treated",0
same,Treatment discontinuation: Adverse event (subjects),"[2]; Cohort 6 (0.40 mg/kg), 4 treated",0
same,patients with at least one related treatment-emergent adverse event (TEAE),[2]; Sixteen of 20 patients,80%
same,Treatment discontinuation: Adverse event (subjects),"[2]; Total, 20 treated",0
same,"time to platelet count recovery to > 50,000",[2]; all cases,≤ 4 days
same,"time to platelet count recovery to > 75,000",[2]; all cases,≤ 1 week
same,number of dose-limiting toxicities (grade 4 thrombocytopenia),"[2]; dose escalation 0.04 to 0.4 mg/kg IV BIW, DLT at 0.32 mg/kg",one
same,lowest platelet count observed during the study,"[2]; human, in vivo","24,000 /µL"
same,median duration of dose interruption due to thrombocytopenia,"[2]; human, in vivo",5 days
same,time to resolution of the grade 4 thrombocytopenia DLT,"[2]; human, in vivo",≤ 48 h
same,"Alanine aminotransferase increased, Grade > 3",[2]; [4],0
same,"Blood bilirubin increased, Grade > 3",[2]; [4],0
same,"Contusion, Grade > 3",[2]; [4],0
same,"Decreased appetite, Grade > 3",[2]; [4],0
same,"Fatigue, Grade > 3",[2]; [4],0
same,"Hematuria, Grade > 3",[2]; [4],0
same,"Infusion related reaction, Grade > 3",[2]; [4],0
same,"Lipase increased, Grade > 3",[2]; [4],0
same,"Temperature intolerance, Grade > 3",[2]; [4],0
same,"Thrombocytopenia, Grade > 3",[2]; [4],1
same,patients with dose interruption due to thrombocytopenia,[2]; of 20 patients,8 patients
same,patients with dose reduction due to thrombocytopenia,[2]; of 20 patients,2 patients and 1 patients
same,need for platelet transfusions,[2]; patients with thrombocytopenia,none of the patients required platelet transfusions
same,"Alanine aminotransferase increased, Number of subjects (%)",[2]; [5],1 (5) subjects (%)
same,"Blood bilirubin increased, Number of subjects (%)",[2]; [5],1 (5) subjects (%)
same,"Contusion, Number of subjects (%)",[2]; [5],1 (5) subjects (%)
same,"Decreased appetite, Number of subjects (%)",[2]; [5],1 (5) subjects (%)
same,"Fatigue, Number of subjects (%)",[2]; [5],2 (10) subjects (%)
same,"Hematuria, Number of subjects (%)",[2]; [5],1 (5) subjects (%)
same,"Infusion related reaction, Number of subjects (%)",[2]; [5],2 (10) subjects (%)
same,"Lipase increased, Number of subjects (%)",[2]; [5],1 (5) subjects (%)
same,"Temperature intolerance, Number of subjects (%)",[2]; [5],1 (5) subjects (%)
same,"Thrombocytopenia, Number of subjects (%)",[2]; [5],9 (45) subjects (%)
same,VHL expression in peripheral WBCs,VHL,did not demonstrate a simultaneous drop
same,BCL-XL levels in normal human donor WBCs,BCL-XL [3],capable of completely degrading BCL-XL; also recorded: dose dependent degradation
